Source: article PMC6630214, “Design, Synthesis and Biological Evaluation of 7-Chloro-9H-pyrimido[4,5-b]indole-based Glycogen Synthase Kinase-3β Inhibitors” (Molecules, 2019)

Target: GSK-3β (Homo sapiens, UniProt P49841)
Assay: ADP Glo GSK-3β kinase assay
Type: biochemical
Settings: ADP Glo kinase assay; for IC50: n = 2 (14b n = 5, 24 n = 3), read-out: IC50 (µM) Mean ± SEM GSK-3β; for GSK-3β inhibition (in words): hit 1 from kinome-wide screening
Method: To extend the biological profile of this novel class of 7-chloro-9H-pyrimido[4,5-b]indole-based GSK-3β inhibitors, we tested the lead compound 14b for its ATP competition in our ADP Glo assay system.
ATP Binding Competition of Compound 14b
Compound 14b was analyzed for its competition with ATP in an ADP Glo GSK-3β assay. To
this end, a dilution series of 14b was incubated with 25 µM, 100 µM and 500 µM of ATP and
corresponding IC50 values were determined. Results and inhibition curves are listed in
Table S1. IC50 values for compound 14b in the ATP binding competition experiment.
ATP concentration [µM] GSK-3β
a IC50 values were determined in an ADP Glo kinase assay , n = 1; b n = 5.
Figure S3. Inhibition curves of compound 14b in the presence of 100 µM and 500 µM ATP.
(1 picture or pasted object on this page, not shown here)

Sequence of GSK-3β (P49841 whole entry): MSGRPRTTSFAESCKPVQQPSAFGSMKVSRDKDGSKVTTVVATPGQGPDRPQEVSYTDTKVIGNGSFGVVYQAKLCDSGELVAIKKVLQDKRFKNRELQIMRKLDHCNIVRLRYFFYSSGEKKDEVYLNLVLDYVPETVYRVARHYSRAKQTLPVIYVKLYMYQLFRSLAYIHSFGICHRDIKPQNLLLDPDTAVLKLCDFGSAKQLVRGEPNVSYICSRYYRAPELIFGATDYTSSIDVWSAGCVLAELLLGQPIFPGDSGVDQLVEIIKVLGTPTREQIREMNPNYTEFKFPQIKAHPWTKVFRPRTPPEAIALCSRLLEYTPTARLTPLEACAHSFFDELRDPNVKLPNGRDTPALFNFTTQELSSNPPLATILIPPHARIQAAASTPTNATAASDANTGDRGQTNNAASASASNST

SMILES	IC50	GSK-3β inhibition (in words)
CN(c1ncnc2c1c1ccc(Cl)cc1n2C)C1CCCN(CCC#N)C1 (stereo not shown) [Compound 14o, 3-(3-((7-Chloro-9-methyl-9H-pyrimido[4,5-b]indol-4-yl)(methyl)amino)piperidin-1-yl)propanenitrile]	> 10 µM	inactive
CN(c1ncnc2[nH]c3cc(Cl)ccc3c12)C1CCCN(Cc2ccncc2)C1 (stereo not shown) [Compound 14i, 7-Chloro-N-methyl-N-(1-(pyridin-4-ylmethyl)piperidin-3-yl)-9H-pyrimido[4,5-b]indol-4-amine]	> 10 µM	
CN(c1ncnc2[nH]c3cc(Cl)ccc3c12)C1CCCN(Cc2cccc(C#N)c2)C1 (stereo not shown) [Compound 14j, 3-((3-((7-Chloro-9H-pyrimido[4,5-b]indol-4-yl)(methyl)amino)piperidin-1-yl)methyl)benzonitrile]	> 10 µM	
CC(C)N1CCCC(N(C)c2ncnc3[nH]c4cc(Cl)ccc4c23)C1 (stereo not shown) [Compound 14f, 7-Chloro-N-(1-isopropylpiperidin-3-yl)-N-methyl-9H-pyrimido[4,5-b]indol-4-amine]	> 10 µM	severe decrease in activity
COC(=O)CCN1CCCC(N(C)c2ncnc3[nH]c4cc(Cl)ccc4c23)C1 (stereo not shown) [Compound 14d, Methyl-3-(3-((7-chloro-9H-pyrimido[4,5-b]indol-4-yl)(methyl)amino)piperidin-1-yl)propanoate]	> 10 µM	dramatic decrease in activity
CN(c1ncnc2[nH]c3cc(Cl)ccc3c12)C1CCCN(CC2CC2)C1 (stereo not shown) [Compound 14m, 7-Chloro-N-(1-(cyclopropylmethyl)piperidin-3-yl)-N-methyl-9H-pyrimido[4,5-b]indol-4-amine]	> 10 µM	severe decrease in activity
CN(C)CCCN1CCCC(N(C)c2ncnc3[nH]c4cc(Cl)ccc4c23)C1 (stereo not shown) [Compound 14n, 7-Chloro-N-(1-(3-(dimethylamino)propyl)piperidin-3-yl)-N-methyl-9H-pyrimido[4,5-b]indol-4-amine]	3.56 ± 0.664 µM	remarkably reduced GSK-3β inhibition
CN(c1ncnc2[nH]c3cc(Cl)ccc3c12)C1CCCN(Cc2ccco2)C1 (stereo not shown) [Compound 14h, 7-Chloro-N-(1-(furan-2-ylmethyl)piperidin-3-yl)-N-methyl-9H-pyrimido[4,5-b]indol-4-amine]	> 10 µM	
C[C@@H]1CCN(C(=O)CC#N)C[C@@H]1N(C)c1ncnc2[nH]c3cc(Cl)ccc3c12 [Compound 1, 3-((3R,4R)-3-((7-Chloro-9H-pyrimido[4,5-b]indol-4-yl)(methyl)amino)-4-methylpiperidin-1-yl)-3-oxopropanenitrile]		single-digit micromolar range
CN(c1ncnc2[nH]c3cc(Cl)ccc3c12)C1CCCN(C2CCCC2)C1 (stereo not shown) [Compound 14g, 7-Chloro-N-(1-cyclopentylpiperidin-3-yl)-N-methyl-9H-pyrimido[4,5-b]indol-4-amine]	> 10 µM	severe decrease in activity

The next lines start with the values.

IC50	GSK-3β inhibition (in words)	SMILES
7.02 ± 1.08 µM		CN(c1ncnc2[nH]c3cc(Cl)ccc3c12)C1CCN(CCC#N)C1 (stereo not shown) [Compound 15, 3-(3-((7-Chloro-9H-pyrimido[4,5-b]indol-4-yl)(methyl)amino)pyrrolidin-1-yl)propanenitrile]
> 10 µM	inactive	CN(c1ncnc2[nH]c3cc(Cl)ccc3c12)C1CCCN(CC#N)C1 (stereo not shown) [Compound 14l, 2-(3-((7-Chloro-9H-pyrimido[4,5-b]indol-4-yl)(methyl)amino)piperidin-1-yl)acetonitrile]
> 10 µM	dramatic decrease in activity	CN(c1ncnc2[nH]c3cc(Cl)ccc3c12)C1CCCN(CCC(N)=O)C1 (stereo not shown) [Compound 14c, 3-(3-((7-Chloro-9H-pyrimido[4,5-b]indol-4-yl)(methyl)amino)piperidin-1-yl)propanamide]
> 10 µM	severe decrease in activity	CCCN1CCCC(N(C)c2ncnc3[nH]c4cc(Cl)ccc4c23)C1 (stereo not shown) [Compound 14e, 7-Chloro-N-methyl-N-(1-propylpiperidin-3-yl)-9H-pyrimido[4,5-b]indol-4-amine]
1.86 ± 0.113 µM		CN(c1ncnc2[nH]c3cc(Cl)ccc3c12)C1CCCN(C(=O)CC#N)C1 (stereo not shown) [Compound 14a, 3-(3-((7-Chloro-9H-pyrimido[4,5-b]indol-4-yl)(methyl)amino)piperidin-1-yl)-3-oxopropanenitrile]
1.54 ± 0.284 µM		CN(c1ncnc2[nH]c3cc(Cl)ccc3c12)C1CCCN(CCC#N)CC1 (stereo not shown) [Compound 16, 3-(4-((7-Chloro-9H-pyrimido[4,5-b]indol-4-yl)(methyl)amino)azepan-1-yl)propanenitrile]
> 10 µM	inactive	CN(c1ncnc2[nH]c3cc(Cl)ccc3c12)C1CCCN(CCC(F)(F)F)C1 (stereo not shown) [Compound 14k, 7-Chloro-N-methyl-N-(1-(3,3,3-trifluoropropyl)piperidin-3-yl)-9H-pyrimido[4,5-b]indol-4-amine]
13.3 ± 4.39 µM		CN(c1ncnc2[nH]c3cc(Cl)ccc3c12)C1CCN(CCC#N)CC1 [Compound 17, 3-(4-((7-Chloro-9H-pyrimido[4,5-b]indol-4-yl)(methyl)amino)piperidin-1-yl)propanenitrile]
